The text below walks through data of paper PMC7504387, “Antimicrobial and Amyloidogenic Activity of Peptides Synthesized on the Basis of the Ribosomal S1 Protein from Thermus Thermophilus” (International Journal of Molecular Sciences, 2020).

Where a SMILES comes first, the peptide text is derived from it.

A short description of data set [1]: Transmission electron microscopy of peptide preparations. Format: physicochemical. The settings on record: peptide alone, negative staining, TEM. The method, then:
The presence of amyloid fibrils in the test samples was monitored by transmission electron microscopy (TEM). End-point solutions of peptides were collected and the samples were dissolved in the same solution to 0.2 mg/mL before studying with electron microscopy. A formvar-coated copper grid 400 mesh (Electron Microscopy Sciences, Hatfield, PA, USA) was placed on a 10 μL sample. After 5 min absorption, the grids with the preparation were negatively stained for 1.5–2.0 min with 1% (weight/volume) aqueous solution of uranyl acetate. The excess of the staining agent was removed with filter paper. The preparations were analyzed using a JEM-100C (Jeol, Tokyo, Japan) transmission electron microscope at the accelerating voltage of 80 kV. Images were recorded on the Kodak electron image film (SO-163) at nominal magnification of 40,000–60,000.

A short description of data set [2]: Thioflavine T fluorescence assay of peptide aggregation. The conditions noted are these: peptide alone, ThT 0.2 mM, 37 °C. Format: physicochemical. How it is done:
Fibrils growth was monitored by thioflavine T (ThT) (Sigma-Aldrich, St. Louis, MO, USA) fluorescence. The kinetics of aggregation of peptides was studied using the method of fluorescence spectroscopy. Each kinetics graph was plotted based on the average of several results measured at different time intervals. To facilitate dissolution, all the samples of peptides were pre-dissolved in 100% DMSO, then buffers 50 mM Tris-HCl, pH 7.5, 150 mM NaCl or 20% acetic acid pH 2.0, 150 mM NaCl were added (1% final concentration DMSO) and filtered through […] membranes to remove small aggregates. ThT is the most commonly used fluorescent dye for the following amyloid formation semi-quantitatively in vitro. Free ThT has excitation and emission maxima at ∼350 and ∼450 nm, respectively (after binding to fibrils, the excitation and emission λmax change to ∼450 and ∼482–485 nm, respectively). A stock solution of ThT was prepared at a concentration of 20 mM in 50 mM Tris-HCl, pH 7.5, 150 mM NaCl or 20% acetic acid pH 2.0, 150 mM NaCl, respectively and stored at 4 °C protected from light. The final concentration of ThT was 0.2 mM, and each peptide was 0.2 mM. ThT was present in the sample during the fibril formation reaction. Measurements of ThT fluorescence were performed on a Cary Eclipse fluorescence spectrophotometer (Varian, Mulgrave, Australia) in quartz cells 3 × 3 mm at 37 °C.

Regarding `CC[C@H](C)[C@H](NC(=O)[C@H](CCC(=O)O)NC(=O)[C@@H](NC(=O)[C@H](Cc1ccccc1)NC(=O)[C@@H](NC(=O)CNC(=O)[C@H](Cc1ccccc1)NC(=O)[C@H](CC(=O)O)NC(=O)[C@@H](NC(=O)[C@@H](NC(=O)CNC(=O)CN(C)C(=O)CNC(=O)CNC(=O)[C@H](CCCNC(=N)N)NC(=O)[C@H](CCCNC(=N)N)NC(=O)[C@H](CCCNC(=N)N)NC(=O)[C@H](CCC(N)=O)NC(=O)[C@H](CCCNC(=N)N)NC(=O)[C@H](CCCNC(=N)N)NC(=O)[C@H](CCCCN)NC(=O)[C@H](CCCCN)NC(=O)[C@@H](N)CCCNC(=N)N)C(C)C)[C@@H](C)O)C(C)C)C(C)C)C(=O)O` [R23I] (HELM PEPTIDE1{R.K.K.R.R.Q.R.R.R.G.G.[Sar].G.V.T.D.F.G.V.F.V.E.I}$$$$V2.0; N-terminus and C-terminus assumed), the “aggregate/fibril morphology according to electron microscopy” value in data set [1] is “aggregates of different sizes and complexes of aggregates are present”. Also, the “amyloids in peptide preparation according to ThT fluorescence” value in data set [2] is listed as “absence of R23I amyloids”.
